Tests used:
[1] = test system: FFPE human brain tissues; test: Targeted masking of autofluorescence, in situ imaging of FFPE human brain tissue
Protocol: (§1) Formalin-fixed paraffin embedded (FFPE) human brain tissues and fresh frozen (FrF) mouse brain tissues were obtained for this example. The samples were sectioned to 10 μm thickness and transferred to Superfrost® Plus slides. The FFPE human brain tissues were treated multiple times with Histo-Clear® and citrate buffer to remove the embedded paraffin. The FrF mouse brain samples were fixed using 3.7% formaldehyde for 5 minutes. The slides were then incubated with nucleic acid probes targeting genes of interest. The nucleic acid probes were allowed to hybridize overnight in hybridization buffer at 37° C. The next day, the samples were washed using wash buffers to remove excess or unbound probes. The probes were then ligated in the presence of ligase, RNAase inhibitor and ligation buffer for 2 hours. Subsequently, the ligation products were amplified overnight using polymerases and amplification buffers. The samples were then stained using fluorescently labelled probes. Finally, the quenching agent compound 1A was dissolved in DMF (at 18 mM), diluted with 70% ethanol to provide solutions of compound 1A at concentrations of 3.6 mM, 1.8 mM, and 0.9 mM. These solutions were applied to the samples prior to imaging. Once imaged, the fluorescently labelled probes were stripped using a denaturing agent and contacted with additional detectable probes before the next imaging round. In this manner, multiple rounds of stripping, re-probing, and imaging of signals associated with the fluorescently labelled probes, were performed without any additional quenching steps.
To improve the binding of compound 1A to tissue moieties responsible for autofluorescence, the FrF mouse brain tissues were treated with dithiothreitol (DTT, 50 mM) and 2% TEA for 10 minutes before quenching with compound 1A. DTT reduces disulfide bridges in the tissues thereby increasing the thiol content for improved binding of compound 1A. Alternatively, the tissues were treated with a combination of 2,5-dioxopyrrolidin-1-yl 3-oxo-1-(pyridin-2-yldisulfaneyl)-7,10,13,16-tetraoxa-4-azanonadecan-19-oate (PEG4-SPDP), a derivative of succinimidyl 3-(2-pyridyldithio) propionate (SPDP) comprising an internal tetraoligoethylene linker, and DTT, to convert amines to thiols and reduce any disulfide bridges to increase thiol content. For the reduction only treatment, the tissues were treated with DTT (50 mM for 10 minutes). For the conversion of amines to thiols and subsequent reduction, the tissues were treated first with PEG4-SPDP (10 mM) for 10 minutes, followed by treatment with DTT (50 mM) and compound 1A (0.9 mM). PEG4-SPDP is a multifunctional crosslinker for protein conjugation via amine-to-amine or amine-to-sulfhydryl crosslinks that contain a 4-unit polyethylene glycol (PEG) group and a reducible (cleavable) disulfide bond. The tissues were then washed prior to or after staining. […] Results were compared to the tissues incubated with a native thiol targeting group (control group). […] FIGS. 3A and 3C depict the fluorescence for the dentate gyrus and cortex portions prior to quenching, in which punctuate fluorescence signals were associated with rolling circle amplification products, and amorphous background fluorescence was detected.
Further studies were conducted on FFPE human brain tissue that were enriched for binding moieties in the tissue via treatment with DTT or with DTT and PEG4-SPDP. FIG. 5 depicts the signal-to-noise ratio increased post-quenching with DTT/Compound 1A and PEG4-SPDP-DTT/Compound 1A, and was maintained after stripping with DMSO treatment and rehybridization of fluorescent probes.

[2] = test system: FFPE human tonsil tissues; test: Autofluorescence masking over multiple cycles in FFPE human tonsil tissue
Protocol: Formalin-fixed paraffin embedded (FFPE) human tonsil and liver tissues were obtained for this example. The samples were sectioned to 5 μm thickness and transferred to Superfrost® Plus slides. The samples were treated multiple times with Histo-Clear® and citrate buffer to remove the embedded paraffin and incubated overnight with nucleic acid probes targeting epithelial genes. The next day, the samples were washed with wash buffers to remove excess or unbound probes. The probes were then ligated in the presence of ligase, RNAase inhibitor and ligation buffer for 2 hours. Subsequently, the ligation products were amplified overnight using polymerases and amplification buffers. The samples were then stained using fluorescently labelled probes. Prior to staining, the samples with treated with DTT (1 mM) for 10 minutes and quenchers with different concentrations of the compound 1A (0.1 mM, 0.5 mM, and 0.8 mM). Images of control samples without compound 1A treatment were obtained for comparison. Samples were imaged in two field of views (FOVs) to control for photo bleaching. Once imaged, the fluorescently labelled probes were stripped using a denaturing agent and contacted with additional detectable probes before the next imaging round. In this manner, multiple rounds of stripping, re-probing, and imaging of signals associated with the fluorescently labelled probes, were performed without any additional quenching steps.

[3] = test system: FFPE human brain tissues; test: Masking autofluorescence of FFPE human brain tissue with quencher analogues; details: for background signal compared to unquenched tissues: quencher 1 mM 30 min, 50 mM DTT, all four channels 488, 532, 590, 647 nm (FIGS. 7A-7D); for detected object local mean signal-to-noise ratio: quencher 1 mM, 590 nm and 647 nm (FIGS. 8B, 8C)
Protocol: Formalin-fixed paraffin embedded (FFPE) human brain tissues were treated using the protocol described in Example 1 and further treated using 50 mM DTT for 30 minutes. Next, the tissues were incubated with the quenchers (1 mM) for 30 minutes prior to staining. Staining was performed using nucleic acid probes targeting an anchor sequence which is present within all of the RCPs and targeting epithelial genes-rp1p0, malat1, and actb. The tissues were stained with the quencher compounds 1A, 2A, 1B, 3B, a combination of quenchers 1A and 3B, or a commercial quencher (Table 1, for comparison).

[4] = test system: fresh frozen (FrF) mouse brain tissues (dentate gyrus, cortex); test: Targeted masking of autofluorescence, in situ imaging of fresh frozen mouse brain tissue sections
Protocol: as §1
To improve the binding of compound 1A to tissue moieties responsible for autofluorescence, the FrF mouse brain tissues were treated with dithiothreitol (DTT, 50 mM) and 2% TEA for 10 minutes before quenching with compound 1A. DTT reduces disulfide bridges in the tissues thereby increasing the thiol content for improved binding of compound 1A. Alternatively, the tissues were treated with a combination of 2,5-dioxopyrrolidin-1-yl 3-oxo-1-(pyridin-2-yldisulfaneyl)-7,10,13,16-tetraoxa-4-azanonadecan-19-oate (PEG4-SPDP), a derivative of succinimidyl 3-(2-pyridyldithio) propionate (SPDP) comprising an internal tetraoligoethylene linker, and DTT, to convert amines to thiols and reduce any disulfide bridges to increase thiol content. For the reduction only treatment, the tissues were treated with DTT (50 mM for 10 minutes). […] FIGS. 3A and 3C depict the fluorescence for the dentate gyrus and cortex portions prior to quenching, in which punctuate fluorescence signals were associated with rolling circle amplification products, and amorphous background fluorescence was detected.

[5] = PEG4-SPDP-DTT/Compound 1A (FIG. 5)
[6] = stripping of fluorescently labeled probes and rehybridization

Which results are given for `COc1cc(/N=N/c2ccc([N+](=O)[O-])cc2)c(OC)cc1/N=N/c1ccc(N(C)CCCN2C(=O)C=CC2=O)cc1` [Compound 1A]?
background in human brain tissues [1]: efficiently reduced; signal to background ratio after 5 cycles of stripping and rehybridizing ([1]; 488 nm, 590 nm, 532 nm and 647 nm, single quenching application (FIGS. 6A-6D)): maintained; signal-to-noise ratio after stripping with DMSO and rehybridization of fluorescent probes ([1]; DTT/Compound 1A (FIG. 5)): maintained; signal-to-noise ratio post-quenching ([1]; DTT/Compound 1A (FIG. 5)): increased; signal-to-noise ratio after stripping with DMSO and rehybridization of fluorescent probes [1, 5]: maintained; signal-to-noise ratio post-quenching [1, 5]: increased; retention of quencher on tissues through multiple detection cycles ([1]; covalently bound, no repeated quenching steps): retained; autofluorescence quenching effect after stripping [1, 6]: retained; detected object density ([2]; 0.1, 0.5 and 0.8 mM, 488 nm (FIGS. 10A-10C)): increase; detected object local signal-to-noise ratio ([2]; 0.1, 0.5 and 0.8 mM, 488 nm (FIGS. 11A-11C)): Increased; background signal compared to unquenched tonsil tissues ([2]; 0.1, 0.5 and 0.8 mM, 488 nm, cycles 5-7 vs 1-3, multiple cycles of stripping and reprobing (FIGS. 9A-9C)): Significant reduction; background noise across all four wavelengths measured ([2]; 488, 532, 590, 647 nm (data for additional wavelengths not shown)): reduced background noise was maintained; signal intensity ([2]; 488 nm, after quenching): reduced; detected objected signal intensity above local background ([2]; quenched tissue, 488 nm, exposure time increased from 10 ms to 30 ms (FIG. 12)): significantly improved; background signal compared to unquenched tissues [3]: significant reduction; detected object local mean signal-to-noise ratio [3]: improved; staining of the tissues with the targeting chemistry ([4]; FrF mouse brain, DTT or PEG4-SPDP/DTT enrichment, compared to native thiol control group): efficiently stain; background signal ([4]; after stripping with DMSO, treatment with compound 1A and rehybridization with additional probes): significantly reduced; background in dentate gyrus (DG) and cortex samples ([4]; mouse brain, quenched vs prior to quenching (FIGS. 3A-3D)): efficiently reduced; autofluorescence quenching effect after stripping [4, 6]: retained

Which results are given for `COc1cc(/N=N/c2c(Cl)cc([N+](=O)[O-])cc2Cl)c(OC)cc1/N=N/c1ccc(N(C)CCCN2C(=O)C=CC2=O)cc1` [Compound 2A]?
background signal compared to unquenched tissues [3]: significant reduction; detected object local mean signal-to-noise ratio [3]: improved

`COc1cc(/N=N/c2ccc([N+](=O)[O-])cc2)c(OC)cc1/N=N/c1ccc(N(C)CCCC(=O)ON2C(=O)CCC2=O)cc1` [Compound 1B] was tested. Which “background signal compared to unquenched tissues” value [3] did it give?
The value was “significant reduction”.

What about the “detected object local mean signal-to-noise ratio” value [3] of the same compound?
The value was “improved”.

For `CCN(CC)c1ccc2nc3ccc(/N=N/c4ccc(N(C)CCCC(=O)ON5C(=O)CCC5=O)cc4)cc3[n+](-c3ccccc3)c2c1` [Compound 3B], which “background signal compared to unquenched tissues” value [3] is on record?
The value was “significant reduction”.

From patent US12234507B2, “Compositions and methods for targeted masking of autofluorescence” (10x Genomics, Inc., priority 2022, dated 2025)
